Results taken from patent US20250368628A1, “METHODS AND COMPOUNDS FOR MODULATING INHERITED GENETIC DISEASES” (Design Therapeutics, Inc., priority 2022, published 2025).

system: Myotonic Dystrophy 1 affected patient fibroblasts (Coriel GM04602; 1600 CTG repeats); assay: DM1 foci reduction assay (EC50 assay; CAG10-Cy3 FISH, foci per nucleus); format: cell-based; settings: Homo sapiens, Fibroblast; DM1 patient fibroblasts, 48 h treatment, foci per nucleus; read-out: DM1 EC50, 48 h
Description: DM1 Foci Reduction Assay Methods
Myotonic Dystrophy 1 affected patient fibroblasts (Coriel GM04602; 1600 CTG repeats) and wild type fibroblasts (Coriell GM07492; control line) were cultured separately in Gibco DMEM (1×)+4.5 g/L D-Glucose+L-Glutamine+[…] Sodium Pyruvate, supplemented with 10% FBS and 1× Pen/Strep. Cells were maintained in an incubator at 37° C. and 5% CO2 with media refreshed every 48-72 hours.
At 90-95% confluency, both cell lines were harvested using Trypl-E then pelleted at 500×g for 5 minutes and were resuspended in fresh media. DM1 fibroblasts were seeded in Agilent 96 well black plates at a density of 5,000 cells/well in 200 μL media; and 8 wells were reserved for control fibroblasts. Plates were returned to incubator for 24 hours at 37° C. and 5% CO2.
Compounds were diluted from 10 mM stock to 1 mM in DMSO and then diluted once more to 6 μM (2× concentration) in media. Media was removed from all plates and cells were replenished with 100 μL media. Cells were treated in 8-point dose response, 1:3 fold dilution, 3 μM top dose via addition of 100 μL of 6 μM (2× concentration) compound to the 100 μL media with cells. Plates were returned to incubator for 48 hours at 37° C. and 5% CO2.
Following treatment, compounds were removed, and plates were washed with PBS, then cells were fixed in 75 μL 4% PFA solution for 20 minutes at room temperature. Plates were washed twice with PBS and twice with cold 70% ethanol before permeabilization with 250 μL cold 70% ethanol for 24-72 hours at −20° C.
After permeabilization, plates were washed once with a 30% formamide and 2×SSC buffer and rehydrated in that buffer for 15 minutes at room temperature. Cells were incubated overnight at 37° C. in 75 μL of a hybridization solution containing 30% formamide, 2×SSC, 25 mg/mL dextran sulfate, 2.5 mg/mL BSA, 0.2 μg/mL Herring sperm DNA, 2 mM vanadyl-ribonucleoside complex, and 5 nM CAG10-Cy3 probe.
Plates were washed once with 30% formamide in 2×SSC buffer, then twice with the buffer for 30 minutes at 37° C., 300 RPM in an incubating plate shaker. Cells were stained with 75 μL of 2.5 μg/mL DAPI in PBS for 5 minutes at room temperature. Plates were then washed twice with PBS and stored in 250 μL PBS. Plates were sealed with adhesive foil and wiped down with 70% ethanol.
Cells were imaged on a Cytation5 with a 20× objective sampling from 4 areas of each well. Nuclei were captured under DAPI channel and foci under RFP channel. Plates were analyzed on an average foci per nucleus per well basis.

Q: Which EC50 does the source give for `CCCNC(=O)CCNC(=O)c1nc(NC(=O)c2cc(NC(=O)CCNC(=O)c3nc(NC(=O)CCCNC(=O)c4cc(NC(=O)c5nc(NC(=O)CCNC(=O)c6cc(NC(=O)c7nccn7C)cn6C)cn5C)cn4C)cn3C)cn2CCCCCN(CCOCCOCCOCCOC)CCOCCOCCOCCOC)cn1C` [Compound B-157] here?
A: Its EC50 is > 1000 nM.

Q: With `CCCNC(=O)CCNC(=O)c1nc(NC(=O)c2cc(NC(=O)CCNC(=O)c3nc(NC(=O)CCCNC(=O)c4cc(NC(=O)c5nc(NC(=O)CCNC(=O)c6cc(NC(=O)c7nccn7C)cn6C)cn5C)cn4C)cn3C)cn2CCCCC(=O)N(CCOCCOCCOCCOC)CCOCCOCCOCCOC)cn1C` [Compound B-159] as the molecule, how does the EC50 read?
A: The EC50 was > 1000 nM.

Q: How did the EC50 turn out when `COCCOCCOCCOCCN(CCOCCOCCOCCOC)C(=O)CCCCn1cc(NC(=O)CCNC(=O)c2nc(NC(=O)CCCNC(=O)c3cc(NC(=O)c4nc(NC(=O)CCNC(=O)c5cc(NC(=O)c6nccn6C)cn5C)cn4C)cn3C)cn2C)cc1C(=O)Nc1cn(C)c(C(=O)NCCC(=O)N2CCC(N3CCNCC3)CC2)n1` [Compound B-160] was run?
A: The EC50 was > 1000 nM.

Q: `COCCOCCOCCOCCN(CCCCCn1cc(NC(=O)c2nc(NC(=O)CCNC(=O)c3cc(NC(=O)c4nccn4C)cn3C)cn2C)cc1C(=O)NCCCC(=O)Nc1cn(C)c(C(=O)NCCC(=O)Nc2cc(C(=O)Nc3cn(C)c(C(=O)NCCC(=O)N4CCC(N5CCNCC5)CC4)n3)n(C)c2)n1)CCOCCOCCOCCOC` [Compound B-162] was tested. Which EC50 did it give?
A: The EC50 was > 1000 nM.

Q: For `Cn1cc(NC(=O)c2nc(NC(=O)CCNC(=O)c3cc(NC(=O)c4nccn4C)cn3C)cn2C)cc1C(=O)NCCCC(=O)Nc1cn(C)c(C(=O)NCCC(=O)Nc2cc(C(=O)Nc3cn(C)c(C(=O)NCCC(=O)NCCOCCOCCOCCN4CCC(C#CC#CC5CCN(Cc6ccc(C(C)(C)C)cc6)CC5)CC4)n3)n(C)c2)n1` [Compound B-176], which EC50 is on record?
A: The EC50 was > 1000 nM.

Q: How did the EC50 turn out when `Cn1cc(NC(=O)c2nc(NC(=O)CCNC(=O)c3cc(NC(=O)c4nccn4C)cn3C)cn2C)cc1C(=O)NCCCC(=O)Nc1cn(C)c(C(=O)NCCC(=O)Nc2cc(C(=O)Nc3cn(C)c(C(=O)NCCC(=O)NCCCCCN4CCC(C#CC#CC5CCN(Cc6ccc(C(C)(C)C)cc6)CC5)CC4)n3)n(C)c2)n1` [Compound B-178] was run?
A: The EC50 was > 1000 nM.

Q: `Cn1cc(NC(=O)c2nc(NC(=O)CCNC(=O)c3cc(NC(=O)c4nccn4C)cn3C)cn2C)cc1C(=O)NCCCC(=O)Nc1cn(C)c(C(=O)NCCC(=O)Nc2cc(C(=O)Nc3cn(C)c(C(=O)NCCC(=O)Nc4ccc(C(C)(C)C)cc4)n3)n(C)c2)n1` [Compound B-180] was tested. Which EC50 did it give?
A: Its EC50 is > 1000 nM.

Q: Which EC50 does the source give for `Cn1cc(NC(=O)c2nc(NC(=O)CCNC(=O)c3cc(NC(=O)c4nccn4C)cn3C)cn2C)cc1C(=O)NCCCC(=O)Nc1cn(C)c(C(=O)NCCC(=O)Nc2cc(C(=O)Nc3cn(C)c(C(=O)NCCC(=O)NCCNc4ccc(C(C)(C)C)cc4)n3)n(C)c2)n1` [Compound B-181] here?
A: The EC50 was > 1000 nM.

Q: For `CCCCCC(=O)N1CCC(C#CC#CC2CCN(CCCCCNC(=O)CCNC(=O)c3nc(NC(=O)c4cc(NC(=O)CCNC(=O)c5nc(NC(=O)CCCNC(=O)c6cc(NC(=O)c7nc(NC(=O)CCNC(=O)c8cc(NC(=O)c9nccn9C)cn8C)cn7C)cn6C)cn5C)cn4C)cn3C)CC2)CC1` [Compound B-182], which EC50 is on record?
A: The EC50 was 500 to 1000 nM.

Q: With `CCCCCCN1CCC(C#CC#CC2CCN(CCCCCNC(=O)CCNC(=O)c3nc(NC(=O)c4cc(NC(=O)CCNC(=O)c5nc(NC(=O)CCCNC(=O)c6cc(NC(=O)c7nc(NC(=O)CCNC(=O)c8cc(NC(=O)c9nccn9C)cn8C)cn7C)cn6C)cn5C)cn4C)cn3C)CC2)CC1` [Compound B-183] as the molecule, how does the EC50 read?
A: The EC50 was > 1000 nM.

Q: How did the EC50 turn out when `CC(C)CCC(=O)N1CCC(C#CC#CC2CCN(CCCCCNC(=O)CCNC(=O)c3nc(NC(=O)c4cc(NC(=O)CCNC(=O)c5nc(NC(=O)CCCNC(=O)c6cc(NC(=O)c7nc(NC(=O)CCNC(=O)c8cc(NC(=O)c9nccn9C)cn8C)cn7C)cn6C)cn5C)cn4C)cn3C)CC2)CC1` [Compound B-184] was run?
A: Its EC50 is > 1000 nM.

Q: `Cn1cc(NC(=O)c2nc(NC(=O)CCNC(=O)c3cc(NC(=O)c4nccn4C)cn3C)cn2C)cc1C(=O)NCCCC(=O)Nc1cn(C)c(C(=O)NCCC(=O)Nc2cc(C(=O)Nc3cn(C)c(C(=O)NCCC(=O)NCC#CC#CC4CCN(C(=O)c5ccc(C(C)(C)C)cc5)CC4)n3)n(C)c2)n1` [Compound B-188] was tested. Which EC50 did it give?
A: Its EC50 is > 1000 nM.

Q: For `Cn1cc(NC(=O)c2nc(NC(=O)CCNC(=O)c3cc(NC(=O)c4nccn4C)cn3C)cn2C)cc1C(=O)NCCCC(=O)Nc1cn(C)c(C(=O)NCCC(=O)Nc2cc(C(=O)Nc3cn(C)c(C(=O)NCCC(=O)NCC#CC#CC4CCN(Cc5ccc(C(C)(C)C)cc5)CC4)n3)n(C)c2)n1` [Compound B-189], which EC50 is on record?
A: Its EC50 is > 1000 nM.

Q: For `CC(C)CCC(=O)N1CCC(C#CC#CCNC(=O)CCNC(=O)c2nc(NC(=O)c3cc(NC(=O)CCNC(=O)c4nc(NC(=O)CCCNC(=O)c5cc(NC(=O)c6nc(NC(=O)CCNC(=O)c7cc(NC(=O)c8nccn8C)cn7C)cn6C)cn5C)cn4C)cn3C)cn2C)CC1` [Compound B-190], which EC50 is on record?
A: Its EC50 is > 1000 nM.

Q: `CC(C)CCCN1CCC(C#CC#CCNC(=O)CCNC(=O)c2nc(NC(=O)c3cc(NC(=O)CCNC(=O)c4nc(NC(=O)CCCNC(=O)c5cc(NC(=O)c6nc(NC(=O)CCNC(=O)c7cc(NC(=O)c8nccn8C)cn7C)cn6C)cn5C)cn4C)cn3C)cn2C)CC1` [Compound B-191] was tested. Which EC50 did it give?
A: Its EC50 is 100 to 500 nM.

Q: With `Cn1cc(NC(=O)c2nc(NC(=O)CCNC(=O)c3cc(NC(=O)c4nccn4C)cn3C)cn2C)cc1C(=O)NCCCC(=O)Nc1cn(C)c(C(=O)NCCC(=O)Nc2cc(C(=O)Nc3cn(C)c(C(=O)NCCC(=O)NCC#CC#CC4CCN(C(=O)OC(C)(C)C)CC4)n3)n(C)c2)n1` [Compound B-194] as the molecule, how does the EC50 read?
A: The EC50 was > 1000 nM.

Q: With `Cn1cc(NC(=O)c2nc(NC(=O)CCNC(=O)c3cc(NC(=O)c4nccn4C)cn3C)cn2C)cc1C(=O)NCCCC(=O)Nc1cn(C)c(C(=O)NCCC(=O)Nc2cc(C(=O)Nc3cn(C)c(C(=O)NCCC(=O)N4CCC(O)(C#CC5CCN(C(=O)OC(C)(C)C)CC5)CC4)n3)n(C)c2)n1` [Compound B-195] as the molecule, how does the EC50 read?
A: Its EC50 is > 1000 nM.

Q: How did the EC50 turn out when `Cn1cc(NC(=O)c2nc(NC(=O)CCNC(=O)c3cc(NC(=O)c4nccn4C)cn3C)cn2C)cc1C(=O)NCCCC(=O)Nc1cn(C)c(C(=O)NCCC(=O)Nc2cc(C(=O)Nc3cn(C)c(C(=O)NCCC(=O)N4CCC(O)(C#CC5CCNCC5)CC4)n3)n(C)c2)n1` [Compound B-196] was run?
A: Its EC50 is > 1000 nM.

Q: Which EC50 does the source give for `Cn1cc(NC(=O)c2nc(NC(=O)CCNC(=O)c3cc(NC(=O)c4nccn4C)cn3C)cn2C)cc1C(=O)NCCCC(=O)Nc1cn(C)c(C(=O)NCCC(=O)Nc2cc(C(=O)Nc3cn(C)c(C(=O)NCCC(=O)N4CCC(C#CC5(O)CCN(C(=O)OCC6c7ccccc7-c7ccccc76)CC5)CC4)n3)n(C)c2)n1` [Compound B-197] here?
A: The EC50 was 500 to 1000 nM.

Q: For `Cn1cc(NC(=O)c2nc(NC(=O)CCNC(=O)c3cc(NC(=O)c4nccn4C)cn3C)cn2C)cc1C(=O)NCCCC(=O)Nc1cn(C)c(C(=O)NCCC(=O)Nc2cc(C(=O)Nc3cn(C)c(C(=O)NCCC(=O)N4CCC(C#CC5(O)CCNCC5)CC4)n3)n(C)c2)n1` [Compound B-198], which EC50 is on record?
A: Its EC50 is 500 to 1000 nM.

Q: `Cn1cc(NC(=O)c2nc(NC(=O)CCNC(=O)c3cc(NC(=O)c4nccn4C)cn3C)cn2C)cc1C(=O)NCCCC(=O)Nc1cn(C)c(C(=O)NCCC(=O)Nc2cc(C(=O)Nc3cn(C)c(C(=O)NCCOCCOCCOCCN4CCC(C#CC#CC5CCN(C(=O)OC(C)(C)C)CC5)CC4)n3)n(C)c2)n1` [Compound B-199] was tested. Which EC50 did it give?
A: The EC50 was 100 to 500 nM.

Q: Which EC50 does the source give for `Cn1cc(NC(=O)c2nc(NC(=O)CCNC(=O)c3cc(NC(=O)c4nccn4C)cn3C)cn2C)cc1C(=O)NCCCC(=O)Nc1cn(C)c(C(=O)NCCC(=O)Nc2cc(C(=O)Nc3cn(C)c(C(=O)N4CC(c5cnc(CNC(=O)OCc6ccccc6)[nH]5)C4)n3)n(C)c2)n1` [Compound B-201] here?
A: Its EC50 is > 1000 nM.
